Laboratory results published in patent US8633179B2, “Synergistic interaction of NOTCH-1 inhibitors with glucocorticoids” (priority 2007, dated 2014).
Where two headings read alike, the source gives them in different places.

How the values were obtained:
CUTLL1 cells = assay: Cell viability (MTT/colorimetric proliferation) assay; type: cell-based, human; conditions: for effect of γ-secretase inhibition on the apoptotic response triggered by the drug: CUTLL1, 100 nM CompE or vehicle, increasing drug concentrations
Description: FIG. 1. GSIs reverse glucocorticoid resistance in T-ALL cells. (a-c). […] Statistical significance was assessed with Student's t-test.
FIG. 7. Analysis of the effects of GSI treatment in chemotherapy response. Cell viability analysis in the CUTLL1 cells treated with 100 nM CompE or vehicle only in presence of increasing concentrations of etoposide, methotrexate, L-asparaginase and vincristine. Cell viability was analyzed by an MTT assay and cytotoxicity data was represented as percentage of viable cells compared with non-treated controls. Data are means±s.d. of triplicate experiments.
Proliferation and cell size assays.

[1] = Mouse toxicity model (histology, immunohistochemistry, flow cytometry); conditions: 5 days of treatment
[2] = Pharmacokinetic analysis of DBZ in mouse plasma; type: in vivo; conditions: DBZ 2 μmol/kg tail vein; mice pre-treated with dexamethasone 15 mg/kg for 5 days vs vehicle
Description: Pharmacokinetic and drug metabolism studies. […] The concentration of DBZ in mouse plasma was determined using a standard curve (analyte peak area vs. concentration) generated with calibration standard pools.

[3] = mouse, in vivo
[4] = DBZ metabolism by liver microsomes in vitro; type: in vitro ADME, mouse; conditions: in the presence of dexamethasone vs vehicle, 37° C.
Description: To analyze the effects of dexamethasone in the hepatic metabolism of DBZ, mouse liver microsomes (Xenotech) were incubated with DBZ or dexamethasone plus DBZ at 37° C. and DBZ concentrations were analyzed by LC/MS/MS mass spectrometry in samples taken at serial timepoints using a standard curve prepared in incubation buffer with heat inactivated liver microsomes.

[5] = test system: CUTLL1 cells expressing luciferase
Description: Leukemia xenograft model. Before intravenous xenograft transplantation, recipient animals were irradiated with a total x-ray dose of 300 cGy. Two million CUTLL1 cells expressing luciferase were injected via the tail vein. After a 3-week window for tumor engraftment, mice with homogeneous tumor burdens were segregated into treatment groups (8 animals per group) and treated daily with vehicle (DMSO), dexamethasone (15 mg/kg), DBZ (10 μmol/kg) or dexamethasone (15 mg/kg) plus DBZ (10 μmol/kg) by intraperitoneal injection for 14 days. Disease progression/response was evaluated weekly using bioimaging as described above by integrating the photonic flux (photons per second) through a region around each mouse. Animals were followed up for up to 10 weeks. At the end of the observation period, single cell suspensions from the spleen of surviving animals were analyzed for the presence of leukemic cells by flow cytometry after staining with human anti-CD45-FITC (BD Biosciences).

CUTLL1 T-ALL xenografts = assay: Subcutaneous xenograft model with in vivo bioimaging; parameters: species or system NOD/SCID mice; conditions: 4 days of daily i.p. treatment; dexamethasone 15 mg/kg, DBZ 10 μmol/kg
Description: Subcutaneous xenograft model and in vivo imaging. […] For subcutaneous xenograft experiments, 2.5×10^6 T-ALL cells embedded in matrigel (BD Biosciences) were injected in the flank. After 1 week, mice were segregated into treatment groups (6 animals per group) and treated daily with vehicle (DMSO), dexamethasone (15 mg/kg), DBZ (10 μmol/kg) or dexamethasone (15 mg/kg) plus DBZ (10 μmol/kg) by intraperitoneal injection. For imaging studies, mice were anesthetized by isoflurane inhalation and injected with D-luciferin at 50 mg/Kg (Xenogen) intraperitoneally. Photonic emission was imaged with the In Vivo Imaging System (IVIS, Xenogen) with a collection time of 1 minute. Tumor bioluminescence was quantified by integrating the photonic flux (photons per second) through a region encircling each tumor as determined by the LIVING IMAGES software package (Xenogen).

Klf4 = Klf4 expression in small intestine of treated mice; type: in vivo
Description: KLF4 regulation by NOTCH signaling in the gut. (a,b) Immunohistochemistry analysis of Klf4 expression in small intestine of mice treated with dexamethasone, DBZ or the combination of dexamethasone plus DBZ for 5 days. Scale bars represent 100 μm. (c) Real-time PCR analysis of Klf4 transcript levels in small intestine of mice treated with dexamethasone, DBZ or the combination of dexamethasone plus DBZ for 5 and 10 days. Gapdh levels were used as a reference control. Data are means±s.d. of three animals per group.
Quantitative real-time PCR. […] Total RNA from mouse tissues was extracted using Trizol reagent (Invitrogen). cDNA was generated with the ThermoScript RT-PCR system (Invitrogen) and analyzed by quantitative real-time PCR using SYBR Green RT-PCR Core Reagents kit and the 7300 Real-Time PCR System (Applied Biosystems). Relative expression levels were normalized with GAPDH expression used as a reference control.
Mouse toxicity model. To analyze the effects of GSI cotreatment with dexamethasone in healthy (non-leukemia-bearing) mice, we treated C57/Bl6 female animals (3 mice per group) daily with vehicle (DMSO), dexamethasone (15 mg/kg), DBZ (10 μmol/kg) and dexamethasone (15 mg/kg) plus DBZ (10 μmol/kg) by intraperitoneal injection for 5 and 10 days. […]

PARP cleavage = assay: Western blot analysis of PARP cleavage in CUTLL1 cells; type: cell-based, human
Description: (§1) FIG. 1. […] (a-c). […] (e) Percentage of apoptotic cells (annexinV positive/PI negative) in CUTLL1 (72 hours), KOPTK1 (48 hours) and TALL1 cells (72 hours) treated with DMSO (control), CompE (100 nM), dexamethasone (1 μM) and dexamethasone (1 μM) plus CompE (100 nM). […] Data in (a-f) are means±standard deviation (s.d.) of triplicate experiments. Statistical significance was assessed with Student's t-test.
Western blot analysis. Antibodies against glucocorticoid receptor (E-20, Santa Cruz Biotechnology), BIM (Cell Signaling Technologies); BMF (BD Bioscience) and α-actin (C-11, Santa Cruz Biotechnology) were used in immunoblot assays following manufacturer instructions.

KOPTK1 cells = assay: Cell viability assay; type: cell-based, human
Description: as §1
(§2) Proliferation and cell size assays. Cell growth ratios were determined by a colorimetric assay using the Cell Proliferation Kit I (MU) (Roche) in cell lines treated with different antileukemic drugs in the presence or absence of CompE (100 nM). The range of concentrations used in these experiments was: dexamethasone (10^−10 to […]), etoposide (10^−10 to 10^−4 M), methotrexate (10^−10 to 10^−4 M), L-Asparaginase (10^−8 to 10^−2 g/l) and vincristine (10^−12 to 10^−6 M).

TALL1 cells = assay: Cell viability assay; type: cell-based, human
Description: as §1, §2

NOTCH1 signaling = NOTCH1 signaling in CUTLL1 cells; type: cell-based, human; conditions: CUTLL1, CompE 72 hours

With `C[C@@H]1C[C@H]2[C@@H]3CCC4=CC(=O)C=C[C@]4(C)[C@@]3(F)[C@@H](O)C[C@]2(C)[C@@]1(O)C(=O)CO` [dexamethasone] the IC50 (CUTLL1 cells; Homo sapiens, CUTLL1 cells, 72 hours, dexamethasone in the presence of CompE (100 nM)) was 77 nM, the “spleen histology / cellularity” value [1] was “moderate atrophy of the white pulp with preservation of the marginal zone and disorganization of the red pulp” and the “thymus histology / cellularity” value [1] was “thymic atrophy with loss of the lymphoid cells from the cortex”. For the same molecule, the “histopathology of the gut after 5 days” value ([1]; small intestine, H&E and PAS) was “no histopathological changes in the gut”.

For `CN(Cc1cnc2nc(N)nc(N)c2n1)c1ccc(C(=O)N[C@@H](CCC(=O)O)C(=O)O)cc1` [methotrexate], the “effect of γ-secretase inhibition on the apoptotic response triggered by the drug” value (“effect of γ-secretase inhibition” for short) (CUTLL1 cells) was “did not influence the apoptotic responses”.

For `COc1cc([C@@H]2c3cc4c(cc3[C@@H](O[C@@H]3O[C@@H]5CO[C@@H](C)O[C@H]5[C@H](O)[C@H]3O)[C@H]3COC(=O)[C@H]23)OCO4)cc(OC)c1O` [etoposide], the “effect of γ-secretase inhibition” value (CUTLL1 cells) was “did not influence the apoptotic responses”.

For `CC[C@]1(O)C[C@H]2CN(CCc3c([nH]c4ccccc34)[C@@](C(=O)OC)(c3cc4c(cc3OC)N(C=O)[C@H]3[C@@](O)(C(=O)OC)[C@H](OC(C)=O)[C@]5(CC)C=CCN6CC[C@]43[C@@H]65)C2)C1` [vincristine], the “effect of γ-secretase inhibition” value (CUTLL1 cells) was “did not influence the apoptotic responses”.

In the case of `C[C@H](NC(=O)Cc1cc(F)cc(F)c1)C(=O)NC1C(=O)N(C)c2ccccc2-c2ccccc21` (stereo partly drawn) [DBZ, (2S)-2-[2-(3,5-difluorophenyl)-acetylamino]-N-(5-methyl-6-oxo-6,7-dihydro-5H-dibenzo[b,d]azepin-7-yl)-propionamide], the “clearance of DBZ in vivo” value [2] is reported as “reduced the clearance of DBZ”, the “histopathology of the gut after 5 days” value [3] is reported as “moderate secretory metaplasia with increased number of goblet cells” and the “intestinal proliferation (Ki67 staining)” value [3] is reported as “marked reduction in proliferation”. The “spleen histology / cellularity” value [3] was “disappearance of the marginal zone in the white pulp”, the “thymus histology / cellularity” value [3] was “thymic atrophy with loss of the lymphoid cells from the cortex” and the “DBZ metabolism by liver microsomes” value [4] was “decrease in DBZ metabolism”. The “toxicity in leukemia-bearing mice (mortality, weight loss)” value ([5]; daily i.p. for 14 days) was “accelerated mortality associated with weight loss due to GSI toxicity”, the survival ([5]; end of the observation period (10 weeks), vs. controls) was “inferior outcome” and the “tumor growth / tumor burden by bioimaging” value (CUTLL1 T-ALL xenografts) was “moderate delay in tumor growth”. The “Klf4 expression by RT-PCR” value (Klf4; 5 and 10 days) was “gradual increase of Klf4 expression” and the “KLF4 expression by immunohistochemistry” value (Klf4; 5 days) was “marked increased in KLF4 staining”.

For Z-VAD, the “effect on PARP cleavage and apoptosis triggered by CompE plus dexamethasone” value (PARP cleavage; CUTLL1, Western blot and annexin V-PI staining) was “reversed the induction of PARP cleavage and apoptosis”.

For `C[C@H](NC(=O)Cc1cc(F)cc(F)c1)C(=O)N[C@H]1N=C(c2ccccc2)c2ccccc2N(C)C1=O` [CompE], the “cell response to CompE alone (cell cycle, apoptosis)” value (CUTLL1 cells; CUTLL1, 72 hours) was “modest cytostatic response characterized by G1 cell cycle arrest with little or no apoptosis”, the “cell response to CompE treatment alone” value (KOPTK1 cells) was “G1 cell cycle arrest” and the “cell response to CompE treatment alone” value (TALL1 cells) was “G1 cell cycle arrest”. The NOTCH1 signaling (NOTCH1 signaling) was “effectively blocks NOTCH1 signaling” and the “PARP cleavage (Western blot)” value (PARP cleavage; CUTLL1) was “no significant increase in PARP cleavage”.

B1: L-asparaginase: antineoplastic drug from Roche; inhibition of protein biosynthesis (protein, UniProt P00805 23-348, looked up)
L-asparaginase 2: LPNITILATGGTIAGGGDSATKSNYTVGKVGVENLVNAVPQLKDIANVKGEQVVNIGSQDMNDNVWLTLAKKINTDCDKTDGFVITHGTDTMEETAYFLDLTVKCDKPVVMVGAMRPSTSMSADGPFNLYNAVVTAADKASANRGVLVVMNDTVLDGRDVTKTNTTDVATFKSVNYGPLGYIHNGKIDYQRTPARKHTSDTPFDVSKLNELPKVGIVYNYANASDLPAKALVDAGYDGIVSAGVGNGNLYKSVFDTLATAAKTGTAVVRSSRVPTGATTQDAEVDDAKYGFVASGTLNPQKARVLLQLALTQTKDPQQIQQIFNQY
With B1 the “effect of γ-secretase inhibition” value (CUTLL1 cells) was “did not influence the apoptotic responses”.
